Experimental data from article PMC9128166 (Cancer Science, 2022).
Where “and” joins values, the source holds several entries; their conditions need not be identical. Identical values can stand only once.

Assay: Treatment-emergent adverse events
Type: in vivo, Japanese patients
[1] = Any TEAE, QD dosing period (n = 17)
[2] = Any TEAE, QW dosing period (n = 12)
[3] = Grade ≥3 TEAE, QD dosing period (n = 17)
[4] = Grade ≥3 TEAE, QW dosing period (n = 12)

With `CCOc1c([C@H](C)n2nc(C)c3c(N)ncnc32)cc(Cl)c(F)c1[C@@H]1CNC(=O)C1` [parsaclisib] the “Serious TEAE of pyrexia” value (2 patients) was 11.8%, the “rash (AESI), severity” value (3 patients) was 2 patients with grade 1 and 1 patient with grade 2 and the “nausea (TEAE)” value (4 of 17 patients, total) was 23.5%. For the same compound, the “pyrexia (TEAE)” value (4 of 17 patients, total) was 23.5%, the “Serious TEAEs” value (5 patients) was 29.4% and the “TEAEs leading to dose reduction” value (5 patients) was 29.4%. For the same compound, the “decreased neutrophil count leading to dose interruption” value (5 patients) was 29.4%, the “constipation (TEAE)” value (6 of 17 patients, total) was 35.3% and the “Adverse events of special interest” value (7 patients) was 41.2%. For the same compound, the “TEAEs of grade 3 or higher” value (11 patients) was 64.7%, the Constipation [1] was 4 (23.5) n (%) and the Cough [1] was 2 (11.8) n (%). For the same compound, the Cystitis [1] was 1 (5.9) n (%), the Diarrhea [1] was 0 (0.0) n (%) and the Drug eruption [1] was 3 (17.6) n (%). The Dry eye [1] was 0 (0.0) n (%), the Dry skin [1] was 2 (11.8) n (%) and the Fall [1] was 2 (11.8) n (%). For the same compound, the Gastritis [1] was 2 (11.8) n (%), the Headache [1] was 2 (11.8) n (%) and the Hyperkalemia [1] was 0 (0.0) n (%). The Hypoalbuminemia [1] was 2 (11.8) n (%), the Insomnia [1] was 0 (0.0) n (%) and the Myalgia [1] was 1 (5.9) n (%). For the same compound, the Nasopharyngitis [1] was 0 (0.0) n (%), the Nausea [1] was 2 (11.8) n (%) and the Pyrexia [1] was 3 (17.6) n (%). For the same compound, the Rash [1] was 1 (5.9) n (%), the Stomatitis [1] was 2 (11.8) n (%) and the “Upper respiratory tract infection” value [1] was 2 (11.8) n (%). The Constipation [2] was 2 (16.7) n (%), the Cough [2] was 0 (0.0) n (%) and the Cystitis [2] was 1 (8.3) n (%). For the same compound, the Diarrhea [2] was 3 (25.0) n (%), the Drug eruption [2] was 0 (0.0) n (%) and the Dry eye [2] was 2 (16.7) n (%). The Dry skin [2] was 0 (0.0) n (%), the Fall [2] was 0 (0.0) n (%) and the Gastritis [2] was 0 (0.0) n (%). For the same compound, the Headache [2] was 1 (8.3) n (%), the Hyperkalemia [2] was 2 (16.7) n (%) and the Hypoalbuminemia [2] was 0 (0.0) n (%). The Insomnia [2] was 3 (25.0) n (%), the Myalgia [2] was 1 (8.3) n (%) and the Nasopharyngitis [2] was 3 (25.0) n (%). For the same compound, the Nausea [2] was 3 (25.0) n (%), the Pyrexia [2] was 1 (8.3) n (%) and the Rash [2] was 2 (16.7) n (%). The Stomatitis [2] was 0 (0.0) n (%), the “Upper respiratory tract infection” value [2] was 0 (0.0) n (%) and the Constipation (Any TEAE, Total (N = 17)) was 6 (35.3) n (%). For the same compound, the Cough (Any TEAE, Total (N = 17)) was 2 (11.8) n (%), the Cystitis (Any TEAE, Total (N = 17)) was 2 (11.8) n (%) and the Diarrhea (Any TEAE, Total (N = 17)) was 3 (17.6) n (%). The Drug eruption (Any TEAE, Total (N = 17)) was 3 (17.6) n (%), the Dry eye (Any TEAE, Total (N = 17)) was 2 (11.8) n (%) and the Dry skin (Any TEAE, Total (N = 17)) was 2 (11.8) n (%). The Fall (Any TEAE, Total (N = 17)) was 2 (11.8) n (%), the Gastritis (Any TEAE, Total (N = 17)) was 2 (11.8) n (%) and the Headache (Any TEAE, Total (N = 17)) was 3 (17.6) n (%). The Hyperkalemia (Any TEAE, Total (N = 17)) was 2 (11.8) n (%), the Hypoalbuminemia (Any TEAE, Total (N = 17)) was 2 (11.8) n (%) and the Insomnia (Any TEAE, Total (N = 17)) was 3 (17.6) n (%). For the same compound, the Myalgia (Any TEAE, Total (N = 17)) was 2 (11.8) n (%), the Nasopharyngitis (Any TEAE, Total (N = 17)) was 3 (17.6) n (%) and the Nausea (Any TEAE, Total (N = 17)) was 4 (23.5) n (%). For the same compound, the Pyrexia (Any TEAE, Total (N = 17)) was 4 (23.5) n (%), the Rash (Any TEAE, Total (N = 17)) was 3 (17.6) n (%) and the Stomatitis (Any TEAE, Total (N = 17)) was 2 (11.8) n (%). For the same compound, the “Upper respiratory tract infection” value (Any TEAE, Total (N = 17)) was 2 (11.8) n (%), the Constipation [3] was 0 (0.0) n (%) and the Cough [3] was 0 (0.0) n (%). The Cystitis [3] was 0 (0.0) n (%), the Diarrhea [3] was 0 (0.0) n (%) and the Drug eruption [3] was 0 (0.0) n (%). The Dry eye [3] was 0 (0.0) n (%), the Dry skin [3] was 0 (0.0) n (%) and the Fall [3] was 0 (0.0) n (%). For the same compound, the Gastritis [3] was 0 (0.0) n (%), the Headache [3] was 0 (0.0) n (%) and the Hyperkalemia [3] was 0 (0.0) n (%). For the same compound, the Hypoalbuminemia [3] was 1 (5.9) n (%), the Insomnia [3] was 0 (0.0) n (%) and the Myalgia [3] was 0 (0.0) n (%). For the same compound, the Nasopharyngitis [3] was 0 (0.0) n (%), the Nausea [3] was 0 (0.0) n (%) and the Pyrexia [3] was 0 (0.0) n (%). The Rash [3] was 0 (0.0) n (%), the Stomatitis [3] was 0 (0.0) n (%) and the “Upper respiratory tract infection” value [3] was 0 (0.0) n (%). The Constipation [4] was 0 (0.0) n (%), the Cough [4] was 0 (0.0) n (%) and the Cystitis [4] was 0 (0.0) n (%). The Diarrhea [4] was 0 (0.0) n (%), the Drug eruption [4] was 0 (0.0) n (%) and the Dry eye [4] was 0 (0.0) n (%). For the same compound, the Dry skin [4] was 0 (0.0) n (%), the Fall [4] was 0 (0.0) n (%) and the Gastritis [4] was 0 (0.0) n (%). For the same compound, the Headache [4] was 0 (0.0) n (%), the Hyperkalemia [4] was 0 (0.0) n (%) and the Hypoalbuminemia [4] was 0 (0.0) n (%). For the same compound, the Insomnia [4] was 0 (0.0) n (%), the Myalgia [4] was 0 (0.0) n (%) and the Nasopharyngitis [4] was 0 (0.0) n (%). The Nausea [4] was 0 (0.0) n (%), the Pyrexia [4] was 0 (0.0) n (%) and the Rash [4] was 0 (0.0) n (%). The Stomatitis [4] was 0 (0.0) n (%), the “Upper respiratory tract infection” value [4] was 0 (0.0) n (%) and the Constipation (Grade ≥3 TEAE, Total (N = 17)) was 0 (0.0) n (%). For the same compound, the Cough (Grade ≥3 TEAE, Total (N = 17)) was 0 (0.0) n (%), the Cystitis (Grade ≥3 TEAE, Total (N = 17)) was 0 (0.0) n (%) and the Diarrhea (Grade ≥3 TEAE, Total (N = 17)) was 0 (0.0) n (%). The Drug eruption (Grade ≥3 TEAE, Total (N = 17)) was 0 (0.0) n (%), the Dry eye (Grade ≥3 TEAE, Total (N = 17)) was 0 (0.0) n (%) and the Dry skin (Grade ≥3 TEAE, Total (N = 17)) was 0 (0.0) n (%). The Fall (Grade ≥3 TEAE, Total (N = 17)) was 0 (0.0) n (%), the Gastritis (Grade ≥3 TEAE, Total (N = 17)) was 0 (0.0) n (%) and the Headache (Grade ≥3 TEAE, Total (N = 17)) was 0 (0.0) n (%). The Hyperkalemia (Grade ≥3 TEAE, Total (N = 17)) was 0 (0.0) n (%), the Hypoalbuminemia (Grade ≥3 TEAE, Total (N = 17)) was 1 (5.9) n (%) and the Insomnia (Grade ≥3 TEAE, Total (N = 17)) was 0 (0.0) n (%). The Myalgia (Grade ≥3 TEAE, Total (N = 17)) was 0 (0.0) n (%), the Nasopharyngitis (Grade ≥3 TEAE, Total (N = 17)) was 0 (0.0) n (%) and the Nausea (Grade ≥3 TEAE, Total (N = 17)) was 0 (0.0) n (%). The Pyrexia (Grade ≥3 TEAE, Total (N = 17)) was 0 (0.0) n (%), the Rash (Grade ≥3 TEAE, Total (N = 17)) was 0 (0.0) n (%) and the Stomatitis (Grade ≥3 TEAE, Total (N = 17)) was 0 (0.0) n (%). The “Upper respiratory tract infection” value (Grade ≥3 TEAE, Total (N = 17)) was 0 (0.0) n (%), the “patients with at least one TEAE” value (N = 17) was “all patients” and the “neutropenia leading to dose interruption” value (additional 2 patients) was 11.8%. The “serious TEAE of pancreatitis” value (dose interruption on both occurrences, responded to corticosteroid) was “One patient experienced a serious TEAE of pancreatitis (grade 2, study days 78 and 145)”, the “TEAEs leading to dose interruption” value (during QD dosing) was 7 patients and the “TEAEs leading to dose reduction” value (during QD dosing) was 2 patients. The “TEAEs leading to dose interruption” value (during QW dosing) was 4 patients, the “TEAEs leading to dose reduction” value (during QW dosing) was 3 patients and the “Varicella zoster infection (AESI)” value (grade 2 in severity, led to parsaclisib discontinuation) was 1 patient. For the same compound, the “TEAEs leading to parsaclisib dose reduction (terms)” value (human, in vivo, oral) was “febrile neutropenia (1 patient), drug eruption and neutropenia in a single patient during the QD period, pancreatitis and pancreatitis relapsing in a single patient, and diarrhea (1 patient) and exfoliative dermatitis (1 patient) during the QW period”, the “febrile neutropenia (AESI), occurrence and severity” value (human, in vivo, oral) was “Two patients experienced grade 3” and the “exfoliative dermatitis (AESI), occurrence and severity” value (human, in vivo, oral, 64 day) was “One patient experienced grade 1”. The “Nonhematologic grade 3 or higher TEAEs occurring in 1 patient each” value (in vivo) was “bile duct stenosis (secondary to pancreatitis), hypoalbuminemia, and lymphoma progression (metastases to meninges [lymphomatous meningitis])”, the “Other serious TEAEs experienced by 1 patient each” value (in vivo) was “diarrhea, enteritis infection, febrile neutropenia, metastases to meninges, and pancreatitis” and the “TEAEs with a fatal outcome” value (in vivo) was “no TEAEs with a fatal outcome”. The “diarrhea (AESI), longest time to resolution” value (individual patients) was 14 days and 18 days and 67 days, the “diarrhea (AESI), time to first onset” value (individual patients) was 70 days and 108 days and 305 days and the “febrile neutropenia (AESI), time to onset” value (individual patients) was 28 days and 63 days. The “febrile neutropenia (AESI), time to resolution” value (individual patients) was 10 days and 2 days, the “rash (AESI), longest time to resolution” value (individual patients) was 5 days and 8 days and 23 days and the “rash (AESI), time to onset of first occurrence” value (individual patients) was 11 days and 50 days and 312 days. The “Varicella zoster infection (AESI), onset” value (one patient) was 33 days, the “Varicella zoster infection (AESI), resolution” value (one patient) was 21 days and the “exfoliative dermatitis (AESI), onset” value (one patient) was 64 days. The “exfoliative dermatitis (AESI), resolution” value (one patient) was 36 days and the “diarrhea (AESI), severity” value (three patients, none led to discontinuation) was 1 patient with grade 1 and 2 patients with grade 2.
